The assay deals with T1, BACE2 (Homo sapiens, UniProt Q9Y5Z0).
T1 construct: BACE2 enzyme ectodomain (derived from plasmid “pET17b-T7-hu proBACE2”) was prepared as described in Ostermann et al; T7 tag (N); made in house
T1 sequence (Q9Y5Z0 21-473 limits assumed): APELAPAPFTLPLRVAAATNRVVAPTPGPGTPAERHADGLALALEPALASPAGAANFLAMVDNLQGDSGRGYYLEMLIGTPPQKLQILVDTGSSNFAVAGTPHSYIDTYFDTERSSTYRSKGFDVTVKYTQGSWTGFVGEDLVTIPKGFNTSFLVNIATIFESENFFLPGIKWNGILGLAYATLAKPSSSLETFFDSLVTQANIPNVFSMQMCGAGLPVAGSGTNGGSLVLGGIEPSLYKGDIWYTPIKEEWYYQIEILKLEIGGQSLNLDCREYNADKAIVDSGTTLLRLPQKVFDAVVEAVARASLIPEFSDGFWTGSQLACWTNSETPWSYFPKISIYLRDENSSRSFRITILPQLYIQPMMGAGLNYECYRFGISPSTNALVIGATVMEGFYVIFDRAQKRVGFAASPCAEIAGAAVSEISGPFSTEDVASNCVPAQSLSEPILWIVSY
The experiment in a line: Fluorescent-peptide cleavage assay for BACE2 inhibition. The assay is classed as biochemical. Particulars: BACE2 enzyme ectodomain, fluorescent peptide WS EVNLD AEFRC-MR121, assay buffer pH 4.5, room temperature. How it is done: Fluorescent-Peptide Cleavage Assay for BACE2 Inhibition
The pro-enzyme was stored at 4° C. at a concentration of 70 μg/ml.
A fluorescent peptide with the amino acid sequence WS EVNLD AEFRC-MR121 was synthesised and a stock solution of 1.5 mM in DMSO prepared and stored at −20° C. MR121 is a fluorophore with an excitation wavelength of 630 nm and emission wavelength of 695 nm. The MR121 fluorescence is quenched by the N-terminal tryptophan until the peptide is cleaved by BACE2.
Assays were all made in a Corning 384-well black polystyrene non-binding surface microtitre plate with clear flat bottom and using a Plate:Vision (Perkin Elmer) fluorescence reader. To perform the assay an 80 nM solution of BACE2 was prepared in assay buffer (assay buffer is 100 mM Na-acetate; 20 mM EDTA; 0.05% BSA; pH 4.5) and incubated at room temperature for 1 hour to activate the enzyme. 39 μl of the activated BACE2 was placed in each assay well, followed by 1 μl compound to be tested at an appropriate concentration in 100% DMSO. The plate was then mixed and incubated for 10 minutes at room temperature.
The assay readout is the rate of change of fluorescence intensity giving a relative measure of BACE2 activity. Small values correspond to high inhibition and larger values to low inhibition. […] IC50 values were determined using these assay values generated for a range of inhibitor concentrations and the curve fitting software XLfit (IDBS) using the Sigmoidal Dose-Response Model.

The term IC50 denotes the concentration needed to halve the response being measured. A lower IC50 goes with greater potency. Turning to `CCCOc1cccnc1C(=O)Nc1cccc([C@]2(C)CC(=O)N(C)C(N)=N2)c1` [Example 55, 3-Propoxy-pyridine-2-carboxylic acid [3-((S)-2-amino-1,4-dimethyl-6-oxo-1,4,5,6-tetrahydro-pyrimidin-4-yl)-phenyl]-amide], inhibition was half-maximal at 349 nM (IC50).
The value for `Cc1nn(C)cc1C(=O)Nc1cccc([C@]2(C)CC(=O)N(C)C(N)=N2)c1` [Example 77, 1,3-Dimethyl-1H-pyrazole-4-carboxylic acid [3-((S)-2-amino-1,4-dimethyl-6-oxo-1,4,5,6-tetrahydro-pyrimidin-4-yl)-phenyl]-amide] was 1580 nM; that for `CN1C(=O)C[C@@](C)(c2cccc(NC(=O)c3cc4ccccc4s3)c2)N=C1N` [Example 68, Benzo[b]thiophene-2-carboxylic acid [3-((S)-2-amino-1,4-dimethyl-6-oxo-1,4,5,6-tetrahydro-pyrimidin-4-yl)-phenyl]-amide] was 102 nM; that for `CN1C(=O)C[C@@](C)(c2cccc(NC(=O)c3ccc(OCC(F)(F)F)cn3)c2)N=C1N` [Example 63, 5-(2,2,2-Trifluoro-ethoxy)-pyridine-2-carboxylic acid [3-((S)-2-amino-1,4-dimethyl-6-oxo-1,4,5,6-tetrahydro-pyrimidin-4-yl)-phenyl]-amide] was 60 nM.
The value for `Cc1ccc(C(=O)Nc2ccc(F)c([C@@]3(C)N=C(N)N(C)C(=O)C3(C)C)c2)s1` [Example 102, 5-Methyl-thiophene-2-carboxylic acid [3-((S)-2-amino-1,4,5,5-tetramethyl-6-oxo-1,4,5,6-tetrahydro-pyrimidin-4-yl)-4-fluoro-phenyl]amide] was 52 nM; that for `CN1C(=O)C[C@@](C)(c2cccc(NC(=O)c3ccon3)c2)N=C1N` [Example 81, Isoxazole-3-carboxylic acid [3-((S)-2-amino-1,4-dimethyl-6-oxo-1,4,5,6-tetrahydro-pyrimidin-4-yl)-phenyl]-amide] was 170 nM; that for `Cc1cc(C(=O)Nc2cccc([C@]3(C)CC(=O)N(C)C(N)=N3)c2)c(C)s1` [Example 3, 2,5-Dimethyl-thiophene-3-carboxylic acid [3-((S)-2-amino-1,4-dimethyl-6-oxo-1,4,5,6-tetrahydro-pyrimidin-4-yl)-phenyl]amide] was 86 nM.
Then `CN1C(=O)C[C@]2(CCc3ccc(NC(=O)c4ccccn4)cc32)N=C1N` [Example 128, N-[(1S)-2′-amino-1′-methyl-6′-oxo-2,3,5′,6′-tetrahydro-1′H-spiro[indene-1,4′-pyrimidin]-6-yl]pyridine-2-carboxamide], with 1670 nM; and `Cc1cccnc1C(=O)Nc1ccc(F)c([C@@]2(C)N=C(N)N(C)C(=O)C2(C)C)c1` [Example 105, 3-Methyl-pyridine-2-carboxylic acid [3-((S)-2-amino-1,4,5,5-tetramethyl-6-oxo-1,4,5,6-tetrahydro-pyrimidin-4-yl)-4-fluoro-phenyl]amide], with 49 nM; and `CC[C@@]1(c2cccc(NC(=O)c3ccc(Cl)cn3)c2)CC(=O)N(C)C(N)=N1` [Example 39, 5-Chloro-pyridine-2-carboxylic acid [3-((S)-2-amino-4-ethyl-1-methyl-6-oxo-1,4,5,6-tetrahydro-pyrimidin-4-yl)-phenyl]-amide], with 11 nM.
As to `CN1C(=O)C(C)(C)[C@@](C)(c2cc(NC(=O)c3ccc(Cl)cn3)ccc2Cl)N=C1N` [Example 126, 5-Chloro-pyridine-2-carboxylic acid [3-((S)-2-amino-1,4,5,5-tetramethyl-6-oxo-1,4,5,6-tetrahydro-pyrimidin-4-yl)-4-chloro-phenyl]amide], half-maximal inhibition (IC50) required 36 nM.
`CN1C(=O)C[C@@](C)(c2cccc(NC(=O)c3ccc(Cl)cc3)c2)N=C1N` [Example 18, N-[3-((S)-2-Amino-1,4-dimethyl-6-oxo-1,4,5,6-tetrahydro-pyrimidin-4-yl)-phenyl]-4-chloro-benzamide] gave an IC50 of 50 nM.
With `CN1C(=O)C(O)[C@@](C)(c2cc(NC(=O)c3ccccn3)ccc2F)N=C1N` (stereo partly drawn) [Example 123, Pyridine-2-carboxylic acid [3-((R)-2-amino-5-hydroxy-1,4-dimethyl-6-oxo-1,4,5,6-tetrahydro-pyrimidin-4-yl)-4-fluoro-phenyl]amide], the IC50 came to 350 nM.
As to `C[C@H]1C(=O)N(C)C(N)=N[C@]1(C)c1cccc(NC(=O)c2ccc(Cl)cn2)c1` [Example 91, 5-Chloro-pyridine-2-carboxylic acid [3-((4S,5R)-2-amino-1,4,5-trimethyl-6-oxo-1,4,5,6-tetrahydro-pyrimidin-4-yl)-phenyl]amide], it took 17 nM to reach half-maximal inhibition (IC50).
Then `CN1C(=N)N[C@](C)(c2cc(NC(=O)c3ccc(Cl)cn3)ccc2F)CC1=O` [Example 45, 5-Chloro-pyridine-2-carboxylic acid [3-((S)-2-amino-1,4-dimethyl-6-oxo-1,4,5,6-tetrahydro-pyrimidin-4-yl)-4-fluoro-phenyl]amide], with 7 nM; and `Cc1cnc(C(=O)Nc2cccc([C@]3(C)CC(=O)N(C)C(N)=N3)c2)[nH]1` [Example 84, 4-Methyl-1H-imidazole-2-carboxylic acid [3-((S)-2-amino-1,4-dimethyl-6-oxo-1,4,5,6-tetrahydro-pyrimidin-4-yl)-phenyl]-amide], with 390 nM; and `CN1C(=O)C[C@@](C)(c2cccc(NC(=O)c3ncccc3Cl)c2)N=C1N` [Example 28, 3-Chloro-pyridine-2-carboxylic acid [3-((S)-2-amino-1,4-dimethyl-6-oxo-1,4,5,6-tetrahydro-pyrimidin-4-yl)-phenyl]amide], with 18 nM.
Then `Cc1cc(C(=O)Nc2cccc([C@]3(C)CC(=O)N(C)C(N)=N3)c2)n(C2CC2)n1` [Example 79, 2-Cyclopropyl-5-methyl-2H-pyrazole-3-carboxylic acid [3-((S)-2-amino-1,4-dimethyl-6-oxo-1,4,5,6-tetrahydro-pyrimidin-4-yl)-phenyl]-amide], with 190 nM; and `CN1C(=O)C[C@@](C)(c2cccc(NC(=O)c3ccc(Cl)s3)c2)N=C1N` [Example 2, 5-Chloro-thiophene-2-carboxylic acid [3-((S)-2-amino-1,4-dimethyl-6-oxo-1,4,5,6-tetrahydro-pyrimidin-4-yl)-phenyl]amide], with 14 nM.
For `CN1C(=O)C[C@@](C)(c2cccc(NC(=O)c3ncccc3-c3ccccc3)c2)N=C1N` [Example 37, 3-Phenyl-pyridine-2-carboxylic acid [3-((S)-2-amino-1,4-dimethyl-6-oxo-1,4,5,6-tetrahydro-pyrimidin-4-yl)-phenyl]-amide], the IC50 was 21 nM.
Then `Cc1ncc(C(=O)Nc2cccc([C@]3(C)CC(=O)N(C)C(N)=N3)c2)cn1` [Example 35, 2-Methyl-pyrimidine-5-carboxylic acid [3-((S)-2-amino-1,4-dimethyl-6-oxo-1,4,5,6-tetrahydro-pyrimidin-4-yl)-phenyl]-amide], with 6420 nM; and `CN1C(=O)C(C)(C)[C@@](C)(c2cc(NC(=O)c3nc(Cl)ccc3C(F)(F)F)ccc2F)N=C1N` [Example 119, 6-Chloro-3-trifluoromethyl-pyridine-2-carboxylic acid [3-((S)-2-amino-1,4,5,5-tetramethyl-6-oxo-1,4,5,6-tetrahydro-pyrimidin-4-yl)-4-fluoro-phenyl]amide], with 560 nM.
